Six compounds from patent US9028887B2, “Method improve spatial memory via pterostilbene administration” (The United States of America, as represented by the …, priority 2007, dated 2015) can be followed below.

The experiment relates to M1-transfected COS-7 cells. Put plainly: Calcium recovery in M1-transfected COS-7 cells after dopamine treatment and oxotremorine-induced depolarization. It is filed as cell-based, African green monkey. The following applies: then 1 mM dopamine 4 hours, 750 μM oxotremorine depolarization. Here is the method:
COS-7 cells, a cell line derived from African green monkey kidney, were grown in Dulbecco's Modified Eagle's Medium (D-MEM) supplemented with 10% fetal bovine serum (FBS) and containing 100 U/ml penicillin and 100 μg/ml streptomycin sulfate. Twenty four hours prior to transfection, cells were harvested with trypsin, counted, and plated on […] tissue culture plates at 5×10^6 cells/plate. Cells were transiently transfected with rat muscarinic receptor subtype 1 DNA by the DEAE-dextran method. After transfection, cells were incubated 2.5 hours in growth medium containing 80 μM chloroquine to minimize degradation of the DNA. Transfected cells were then maintained in growth medium for 48 hours, harvested with trypsin, plated to coverslips in 35 mm plates for calcium imaging, and incubated overnight.
Dis. 6:403-411, and hereby incorporated by reference. The BB extract and stilbenes were dissolved in growth media and cells were subsequently incubated for 45 minutes at 37° C. with the treated growth medium, followed by dopamine administration for 4 hours. Following these incubations, the cells were washed three times with extract-free growth medium prior to testing.
Calcium imaging was carried out using a Medical Systems Corp. open perfusion micro-incubator (37° C.) with temperature control that was mounted on the stage of a Nikon Eclipse TE200U microscope and illuminated with a fluorescent light source. Transfected cells were loaded with Fura-2/acetoxymethyl ester (2 μM) in loading medium (99% DMEM 1% FES) for 40 minutes at 37° C. with 5% CO2.
Real time analyses of calcium flux prior to and following 750 μM oxotremorine-induced depolarization were then carried out using Simple PCI software (Compix, Inc. Mars, Pa.). Response and recovery were then determined for each sample. […] Recovery was determined by assessing the time (within 300 sec) for the Ca^2+ levels to return to 20% of the increase following depolarization in the cells that responded. Data was analyzed by Kruskal-Wallis one-way analysis of variance and Mann-Whitney U tests.

Regarding `COc1ccc(/C=C/c2cc(O)cc(O)c2)cc1` [desoxyrhapontigenin, trans-3,5-dihydroxy-4′-methoxystilbene], the “protection against dopamine-induced decreases in Ca2+ Recovery” value (25 μg/ml pre-treatment 45 min) was “offered no protection”.

In the case of `Oc1cc(O)cc(/C=C/c2ccc(O)c(O)c2)c1` [piceatannol, trans-3,4,3′,5′-tetrahydroxystilbene], under “10 μg/ml pre-treatment 45 min”, the “protection against dopamine-induced decreases in Ca2+ Recovery” value was “protected against the dopamine-induced decreases in Recovery”.

Turning to `COc1cc(O)cc(/C=C/c2ccc(O)cc2)c1` [pinostilbene, trans-3,4′-dihydroxy-5-methoxystilbene], the “protection against dopamine-induced decreases in Ca2+ Recovery” value (50 μg/ml pre-treatment 45 min) was “offered no protection”.

Take `COc1cc(/C=C/c2ccc(O[C@@H]3O[C@H](CO)[C@@H](O)[C@H](O)[C@H]3O)cc2)cc(OC)c1` [pterostilbene glucoside]: the “protection against dopamine-induced decreases in Ca2+ Recovery” value (10 μg/ml pre-treatment 45 min) was “protected against the dopamine-induced decreases in Recovery”.

On to `COc1ccc(/C=C/c2cc(OC)cc(OC)c2)cc1` [resveratrol trimethylether, trans-3,5,4′-trimethyletherstilbene], for which, under “10 μg/ml pre-treatment 45 min”, the “protection against dopamine-induced decreases in Ca2+ Recovery” value is “protected against the dopamine-induced decreases in Recovery”.

As to `Oc1ccc(/C=C/c2cc(O)cc(O)c2)cc1` [resveratrol, trans-3,5,4′-trihydroxystilbene], under “50 μg/ml pre-treatment 45 min”, the “protection against dopamine-induced decreases in Ca2+ Recovery” value was “offered no protection”.
